Calls of active or inactive are those of the source. Rule as the data show it, for most assays here: actives have a measured Kd and inactives only a lower limit.
Legend:
[1] = target: T1, Very long-chain specific acyl-CoA dehydrogenase, mitochondrial (Homo sapiens, UniProt P49748)
T1 sequence (P49748 whole entry): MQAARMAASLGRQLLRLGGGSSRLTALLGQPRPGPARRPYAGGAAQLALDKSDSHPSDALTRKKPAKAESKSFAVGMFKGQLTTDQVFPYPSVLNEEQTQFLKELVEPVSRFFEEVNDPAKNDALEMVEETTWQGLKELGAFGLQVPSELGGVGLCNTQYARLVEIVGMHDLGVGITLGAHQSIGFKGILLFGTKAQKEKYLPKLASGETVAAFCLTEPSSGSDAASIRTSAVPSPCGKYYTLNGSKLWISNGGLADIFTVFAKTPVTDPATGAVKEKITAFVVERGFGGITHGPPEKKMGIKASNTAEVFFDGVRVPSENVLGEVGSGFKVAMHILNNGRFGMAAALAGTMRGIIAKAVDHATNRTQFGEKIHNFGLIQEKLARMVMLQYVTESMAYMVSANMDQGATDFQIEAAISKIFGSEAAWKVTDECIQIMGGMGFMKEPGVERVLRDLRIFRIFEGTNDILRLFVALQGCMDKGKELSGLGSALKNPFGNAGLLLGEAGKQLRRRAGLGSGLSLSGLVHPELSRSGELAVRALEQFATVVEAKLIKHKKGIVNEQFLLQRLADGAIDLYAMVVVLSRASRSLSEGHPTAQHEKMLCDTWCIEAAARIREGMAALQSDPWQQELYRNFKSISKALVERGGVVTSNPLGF

[2] = target: Protein-tyrosine kinase 6 (Homo sapiens, UniProt Q13882)
Sequence of Protein-tyrosine kinase 6 (Q13882 whole entry): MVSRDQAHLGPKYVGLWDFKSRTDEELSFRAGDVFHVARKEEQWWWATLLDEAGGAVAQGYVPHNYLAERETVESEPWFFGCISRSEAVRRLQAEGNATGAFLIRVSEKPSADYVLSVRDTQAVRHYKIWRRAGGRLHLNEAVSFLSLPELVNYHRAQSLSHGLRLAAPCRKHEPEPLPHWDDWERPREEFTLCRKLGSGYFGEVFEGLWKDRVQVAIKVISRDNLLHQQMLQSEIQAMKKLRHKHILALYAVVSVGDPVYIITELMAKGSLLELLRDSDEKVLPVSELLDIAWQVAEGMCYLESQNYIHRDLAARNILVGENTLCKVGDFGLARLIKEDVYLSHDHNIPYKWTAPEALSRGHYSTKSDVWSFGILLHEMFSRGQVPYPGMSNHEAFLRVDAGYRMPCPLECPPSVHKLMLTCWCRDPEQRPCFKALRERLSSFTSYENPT

[3] = target: Mitogen-activated protein kinase kinase kinase kinase 5 (Homo sapiens, UniProt Q9Y4K4)
Sequence of Mitogen-activated protein kinase kinase kinase kinase 5 (Q9Y4K4 whole entry): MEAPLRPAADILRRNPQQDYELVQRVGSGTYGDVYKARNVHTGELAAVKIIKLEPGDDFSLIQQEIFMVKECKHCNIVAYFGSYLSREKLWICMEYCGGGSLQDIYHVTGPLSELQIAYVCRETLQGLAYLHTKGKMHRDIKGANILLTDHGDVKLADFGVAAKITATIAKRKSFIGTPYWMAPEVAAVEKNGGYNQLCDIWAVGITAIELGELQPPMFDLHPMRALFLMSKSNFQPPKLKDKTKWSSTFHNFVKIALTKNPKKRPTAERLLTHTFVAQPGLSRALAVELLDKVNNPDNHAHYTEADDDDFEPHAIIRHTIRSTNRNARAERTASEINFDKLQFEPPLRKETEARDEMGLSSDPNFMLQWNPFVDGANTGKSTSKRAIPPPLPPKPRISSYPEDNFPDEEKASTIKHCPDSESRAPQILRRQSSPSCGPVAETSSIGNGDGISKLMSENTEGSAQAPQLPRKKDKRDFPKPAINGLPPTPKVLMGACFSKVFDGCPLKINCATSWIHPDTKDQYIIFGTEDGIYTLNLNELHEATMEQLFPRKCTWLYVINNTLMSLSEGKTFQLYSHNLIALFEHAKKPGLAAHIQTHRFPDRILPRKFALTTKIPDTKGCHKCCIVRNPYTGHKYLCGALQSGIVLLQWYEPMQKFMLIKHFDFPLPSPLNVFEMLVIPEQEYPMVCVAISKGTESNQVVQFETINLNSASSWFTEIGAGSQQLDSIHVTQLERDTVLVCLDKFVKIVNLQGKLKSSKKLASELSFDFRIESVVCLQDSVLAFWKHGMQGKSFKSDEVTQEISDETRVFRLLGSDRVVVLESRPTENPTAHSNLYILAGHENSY

[4] = target: T2, Delta(24)-sterol reductase (Homo sapiens, UniProt Q15392)
T2 sequence (Q15392 whole entry): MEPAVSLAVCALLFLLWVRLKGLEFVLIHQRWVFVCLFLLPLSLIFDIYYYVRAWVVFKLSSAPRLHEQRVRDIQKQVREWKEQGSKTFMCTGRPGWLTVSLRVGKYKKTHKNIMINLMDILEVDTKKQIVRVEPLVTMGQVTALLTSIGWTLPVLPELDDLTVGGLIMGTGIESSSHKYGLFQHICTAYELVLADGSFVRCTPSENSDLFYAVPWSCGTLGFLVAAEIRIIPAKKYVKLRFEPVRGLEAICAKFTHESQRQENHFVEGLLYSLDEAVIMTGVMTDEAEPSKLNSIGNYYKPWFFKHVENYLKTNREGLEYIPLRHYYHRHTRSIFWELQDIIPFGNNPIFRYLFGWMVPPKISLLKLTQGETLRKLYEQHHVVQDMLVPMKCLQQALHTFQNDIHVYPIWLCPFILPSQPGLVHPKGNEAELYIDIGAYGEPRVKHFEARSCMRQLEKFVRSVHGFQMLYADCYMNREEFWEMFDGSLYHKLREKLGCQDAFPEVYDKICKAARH

Focal adhesion kinase 1 = Focal adhesion kinase 1 (Homo sapiens, UniProt Q05397)
Sequence of Focal adhesion kinase 1 (Q05397 whole entry): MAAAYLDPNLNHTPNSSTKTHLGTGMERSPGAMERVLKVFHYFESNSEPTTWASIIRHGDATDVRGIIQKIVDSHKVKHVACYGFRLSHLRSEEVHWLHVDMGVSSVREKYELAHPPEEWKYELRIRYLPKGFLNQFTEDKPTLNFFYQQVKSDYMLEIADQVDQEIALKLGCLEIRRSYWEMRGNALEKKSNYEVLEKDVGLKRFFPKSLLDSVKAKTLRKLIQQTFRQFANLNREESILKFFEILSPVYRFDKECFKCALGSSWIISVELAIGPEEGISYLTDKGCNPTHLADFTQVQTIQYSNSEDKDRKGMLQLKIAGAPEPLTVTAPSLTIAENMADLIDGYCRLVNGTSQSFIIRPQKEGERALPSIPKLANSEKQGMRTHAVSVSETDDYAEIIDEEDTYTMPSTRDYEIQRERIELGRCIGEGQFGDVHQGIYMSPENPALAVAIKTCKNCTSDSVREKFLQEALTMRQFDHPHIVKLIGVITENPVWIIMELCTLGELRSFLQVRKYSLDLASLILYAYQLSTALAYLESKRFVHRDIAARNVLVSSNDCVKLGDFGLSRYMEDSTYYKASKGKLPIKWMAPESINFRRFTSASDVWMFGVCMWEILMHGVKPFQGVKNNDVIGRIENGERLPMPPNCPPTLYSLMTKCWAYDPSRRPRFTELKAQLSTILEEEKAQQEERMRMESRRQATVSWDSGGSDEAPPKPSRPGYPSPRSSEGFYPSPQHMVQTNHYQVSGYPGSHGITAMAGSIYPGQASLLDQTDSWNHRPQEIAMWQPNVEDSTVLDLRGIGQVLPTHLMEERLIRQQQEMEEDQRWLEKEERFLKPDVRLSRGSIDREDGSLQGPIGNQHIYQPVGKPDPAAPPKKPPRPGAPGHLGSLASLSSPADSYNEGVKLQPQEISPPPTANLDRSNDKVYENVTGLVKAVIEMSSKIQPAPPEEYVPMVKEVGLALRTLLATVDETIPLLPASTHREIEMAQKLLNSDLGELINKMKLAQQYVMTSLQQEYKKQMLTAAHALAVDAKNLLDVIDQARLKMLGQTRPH

[5] = target: T3, Serine/threonine-protein kinase ICK (Homo sapiens, UniProt Q9UPZ9)
T3 sequence (Q9UPZ9 whole entry): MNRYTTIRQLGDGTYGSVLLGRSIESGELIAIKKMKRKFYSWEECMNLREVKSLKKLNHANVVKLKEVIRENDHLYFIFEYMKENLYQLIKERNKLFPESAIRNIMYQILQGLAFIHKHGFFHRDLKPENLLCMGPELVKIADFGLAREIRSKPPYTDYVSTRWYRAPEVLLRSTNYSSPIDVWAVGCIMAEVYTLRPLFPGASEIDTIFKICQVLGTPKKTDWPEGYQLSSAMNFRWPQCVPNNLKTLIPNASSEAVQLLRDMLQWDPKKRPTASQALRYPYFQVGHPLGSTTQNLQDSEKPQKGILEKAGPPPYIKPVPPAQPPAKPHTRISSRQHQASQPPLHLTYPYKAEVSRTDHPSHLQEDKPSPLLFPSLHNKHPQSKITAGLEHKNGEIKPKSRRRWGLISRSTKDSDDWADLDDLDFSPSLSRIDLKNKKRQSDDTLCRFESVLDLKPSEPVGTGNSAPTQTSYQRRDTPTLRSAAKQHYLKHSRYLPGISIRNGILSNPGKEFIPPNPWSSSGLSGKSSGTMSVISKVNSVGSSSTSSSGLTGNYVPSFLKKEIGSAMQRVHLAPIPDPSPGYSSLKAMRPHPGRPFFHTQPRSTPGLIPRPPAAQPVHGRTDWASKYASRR

[6] = target: Protein kinase C alpha type (Homo sapiens, UniProt P17252)
Ephrin type-B receptor 3 = target: T4, Ephrin type-B receptor 3 (Homo sapiens, UniProt P54753)
T4 sequence (P54753 whole entry): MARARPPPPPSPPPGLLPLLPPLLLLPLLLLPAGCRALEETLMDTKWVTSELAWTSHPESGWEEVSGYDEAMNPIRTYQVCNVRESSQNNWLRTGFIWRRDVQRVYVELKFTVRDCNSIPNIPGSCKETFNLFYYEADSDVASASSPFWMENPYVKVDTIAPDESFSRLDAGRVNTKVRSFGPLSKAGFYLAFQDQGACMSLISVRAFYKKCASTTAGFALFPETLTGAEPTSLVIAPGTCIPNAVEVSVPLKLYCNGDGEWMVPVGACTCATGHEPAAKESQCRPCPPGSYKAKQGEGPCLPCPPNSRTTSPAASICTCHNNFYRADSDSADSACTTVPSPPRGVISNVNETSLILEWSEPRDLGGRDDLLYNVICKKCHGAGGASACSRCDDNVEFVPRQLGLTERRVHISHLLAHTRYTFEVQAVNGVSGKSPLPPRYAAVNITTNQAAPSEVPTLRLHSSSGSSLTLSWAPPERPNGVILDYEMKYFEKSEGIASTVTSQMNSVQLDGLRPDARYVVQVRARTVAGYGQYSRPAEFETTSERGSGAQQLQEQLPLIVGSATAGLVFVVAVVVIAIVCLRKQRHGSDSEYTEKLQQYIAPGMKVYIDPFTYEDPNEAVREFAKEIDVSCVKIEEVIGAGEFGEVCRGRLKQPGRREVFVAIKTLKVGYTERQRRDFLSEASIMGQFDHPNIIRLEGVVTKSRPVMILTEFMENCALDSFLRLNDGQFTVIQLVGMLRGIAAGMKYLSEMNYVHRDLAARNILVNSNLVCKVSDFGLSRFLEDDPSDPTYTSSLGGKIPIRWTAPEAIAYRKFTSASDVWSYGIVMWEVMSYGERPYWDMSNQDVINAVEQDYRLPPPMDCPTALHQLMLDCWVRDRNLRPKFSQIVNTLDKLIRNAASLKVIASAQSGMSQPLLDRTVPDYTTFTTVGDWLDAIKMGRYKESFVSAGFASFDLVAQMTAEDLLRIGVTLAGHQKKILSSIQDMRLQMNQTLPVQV
Also: in the data inactive means no Kd found up to 30 µM.

Row | Compound | Kd [1] | Kd [2] | Kd [3] | Kd [4] | Kd (Focal adhesion kinase 1) | Kd [5] | Kd [6] | Kd (Ephrin type-B receptor 3)
1 | CNC(=O)c1cc(Oc2ccc(NC(=O)Nc3ccc(Cl)c(C(F)(F)F)c3)c(F)c2)ccn1 [REGORAFENIB] | > 30 µM (inactive) | > 30 µM (inactive) | > 30 µM (inactive) | > 30 µM (inactive) | > 30 µM (inactive) | > 30 µM (inactive) | > 30 µM (inactive) | > 30 µM (inactive)
2 | CCN1CCN(Cc2ccc(-c3cc4c(N[C@H](C)c5ccccc5)ncnc4[nH]3)cc2)CC1 [AEE-788] | > 30 µM (inactive) | > 30 µM (inactive) | 50.2 µM (active) | > 30 µM (inactive) | > 30 µM (inactive) | > 30 µM (inactive) | > 30 µM (inactive) | > 30 µM (inactive)
3 | CN1CC[C@@H](c2c(O)cc(O)c3c(=O)cc(-c4ccccc4Cl)oc23)[C@@H]1CO | > 30 µM (inactive) | > 30 µM (inactive) | > 30 µM (inactive) | > 30 µM (inactive) | > 30 µM (inactive) | 0.892 µM (active) | > 30 µM (inactive) | > 30 µM (inactive)
4 | COc1cc(OC)c(/C=C/S(=O)(=O)Cc2ccc(OC)c(NCC(=O)O)c2)c(OC)c1 [RIGOSERTIB] | > 30 µM (inactive) | > 30 µM (inactive) | > 30 µM (inactive) | > 30 µM (inactive) | > 30 µM (inactive) | > 30 µM (inactive) | > 30 µM (inactive) | > 30 µM (inactive)
5 | C1=C/COCc2cc(ccc2OCCN2CCCC2)Nc2nccc(n2)-c2cccc(c2)COC/1 [PACRITINIB] | > 30 µM (inactive) | > 30 µM (inactive) | > 30 µM (inactive) | > 30 µM (inactive) | > 30 µM (inactive) | 0.27 µM (active) | 0.934 µM (active) | > 30 µM (inactive)
6 | CNC(=O)c1ccc(-c2cnc3ncc(Cc4ccc5ncccc5c4)n3n2)cc1F [CAPMATINIB] | > 30 µM (inactive) | > 30 µM (inactive) | > 30 µM (inactive) | > 30 µM (inactive) | > 30 µM (inactive) | > 30 µM (inactive) | > 30 µM (inactive) | > 30 µM (inactive)
7 | C[C@@H](c1ccc2nccn2c1)n1nnc2ncc(-c3cnn(C)c3)nc21 [SAVOLITINIB] | > 30 µM (inactive) | > 30 µM (inactive) | > 30 µM (inactive) | > 30 µM (inactive) | > 30 µM (inactive) | > 30 µM (inactive) | > 30 µM (inactive) | > 30 µM (inactive)
8 | CC[C@@H]1C(=O)N(C)c2cnc(Nc3ccc(C(=O)N[C@H]4CC[C@H](N5CCN(CC6CC6)CC5)CC4)cc3OC)nc2N1C(C)C [VOLASERTIB] | > 30 µM (inactive) | > 30 µM (inactive) | > 30 µM (inactive) | > 30 µM (inactive) | 0.601 µM (active) | > 30 µM (inactive) | > 30 µM (inactive) | > 30 µM (inactive)
9 | CN1CCC(COc2cnc(-c3cccc(Cn4nc(-c5cccc(C#N)c5)ccc4=O)c3)nc2)CC1 [TEPOTINIB] | > 30 µM (inactive) | > 30 µM (inactive) | > 30 µM (inactive) | > 30 µM (inactive) | > 30 µM (inactive) | > 30 µM (inactive) | > 30 µM (inactive) | > 30 µM (inactive)
10 | Cc1cc2c(F)c(Oc3ncnn4cc(OC[C@@H](C)OC(=O)[C@H](C)N)c(C)c34)ccc2[nH]1 [BRIVANIB ALANINATE] | > 30 µM (inactive) | > 30 µM (inactive) | > 30 µM (inactive) | > 30 µM (inactive) | > 30 µM (inactive) | > 30 µM (inactive) | > 30 µM (inactive) | > 30 µM (inactive)
11 | CN1N=C(N)c2cn([C@@H]3O[C@H](COP(=O)(O)O)[C@@H](O)[C@H]3O)c3ncnc1c23 [TRICIRIBINE PHOSPHATE] | > 30 µM (inactive) | > 30 µM (inactive) | > 30 µM (inactive) | > 30 µM (inactive) | > 30 µM (inactive) | > 30 µM (inactive) | > 30 µM (inactive) | > 30 µM (inactive)
12 | Cc1cc([C@@H](C)Nc2ccccc2C(=O)O)c2nc(N3CCOCC3)cc(=O)n2c1 [AZD-6482] | > 30 µM (inactive) | > 30 µM (inactive) | > 30 µM (inactive) | > 30 µM (inactive) | > 30 µM (inactive) | > 30 µM (inactive) | > 30 µM (inactive) | > 30 µM (inactive)
13 | CCS(=O)(=O)N1CC(CC#N)(n2cc(-c3ncnc4[nH]ccc34)cn2)C1 [BARICITINIB] | > 30 µM (inactive) | > 30 µM (inactive) | > 30 µM (inactive) | > 30 µM (inactive) | > 30 µM (inactive) | > 30 µM (inactive) | 2.07 µM (active) | > 30 µM (inactive)
14 | Cc1cc(-c2cc(O)ccc2Cl)cc2nnc(Nc3ccc(OCCN4CCCC4)cc3)nc12 | > 30 µM (inactive) | > 30 µM (inactive) | > 30 µM (inactive) | > 30 µM (inactive) | > 30 µM (inactive) | > 30 µM (inactive) | > 30 µM (inactive) | 0.002 µM (active)
15 | Cc1c(F)cc(C(=O)NC2CC2)cc1-c1ccc(C(=O)NCC(C)(C)C)cn1 [LOSMAPIMOD] | > 30 µM (inactive) | > 30 µM (inactive) | > 30 µM (inactive) | > 30 µM (inactive) | > 30 µM (inactive) | > 30 µM (inactive) | > 30 µM (inactive) | > 30 µM (inactive)

Source: ChEMBL document CHEMBL3991601, “The target landscape of clinical kinase drugs” (Science, 2017)
